Results published in publication PMC3098202, “Inhibition of Both HIV-1 Reverse Transcription and Gene Expression by a Cyclic Peptide that Binds the Tat-Transactivating Response Element (TAR) RNA” (PLoS Pathogens, 2011).
Like-named read-outs stand apart in the source and are kept apart here. Peptide text beside a SMILES is read from it.

How the values were obtained:
HIV-1NL4-3 [1] = test: Inhibition of HIV-1 NL4-3 replication in U87.CD4.CXCR4 cells (RT activity in supernatant); assay type: cell-based
Experimental: Drug sensitivity assays were performed on U87.CD4.CXCR4/CCR5 cells and in peripheral blood mononuclear cells (PBMC). Peptidomimetics or control drugs were added to cells to yield final concentrations between 100 µM and 10 nM. Cells were incubated with drug for 1 h and exposed to the virus at a multiplicity of infection of 0.001, incubated with the virus for 24 h, and input virus washed away. Supernatant aliquots were removed and virus production was quantified by reverse transcriptase assay. Virus production at each drug concentration was normalized and the relative values were plotted versus drug concentration to determine 50% inhibitory concentrations (IC50). Variations on these drug susceptibility assays are defined in each figure and related text. For the time-of-drug-inhibition experiments, HIV-1 was spinonculated onto U87-CD4/CCR5 cells as previously described. The cells were washed twice with cold phosphate buffered saline (PBS) to remove unbound virions. Cells were resuspended in cold medium and split into 96-well plates (50 µl/well). […] Cells were incubated for 72 h and then treated with lysis buffer and luciferase activity was determined. The same procedure was utilized for the time-of-drug-addition experiment involving cell-to-cell fusion. […]

HIV NL4-3 = test: Inhibition of HIV NL4-3 in PHA/IL-2 stimulated human PBMC; assay type: cell-based, HIV-1; details: Human immunodeficiency virus 1, NL43; human PBMC stimulated with PHA/IL-2; RT activity in supernatant at 8 and 10 days post-infection
Experimental: Figure 2 Testing the susceptibility of HIV-1 to inhibition by Tat peptidomimetics. (A) Comparison of the relative inhibition of the HIV-1 NL4-3 laboratory strain by three lead Tat peptidomimetics. Virus production in cell free supernatant was measured using an endogenous RT assay. […] (D) L-50 inhibition of viral replication of three primary CCR5-tropic HIV-1 isolates measured in U87.CD4.CCR5 cells (A1 is the subtype A Rawandan isolate A1-92RW009, B5 is the subtype B isolate B5-91US056 from the USA and C5 is the subtype C isolate C5-97ZA003 from South Africa) and of CXCR4-tropic strains (D1 is the Ugandan subtype D isolate D1-92UG021, E6 is the subtype A/E circulating recombinant isolate CRF01_AE from Thailand) as well as the laboratory strain HIV-1NL4-3 measured in U87.CD4.CXCR4 cell cultures. […] (E) Inhibition of HIV NL4-3 was also measure in human peripheral blood mononuclear cells stimulated with PHA/IL-2. […] Virus production was measured at 8 and 10 days post-infection by the RT activity in the supernatant (cpm/mL).
Drug sensitivity assays were performed on U87.CD4.CXCR4/CCR5 cells and in peripheral blood mononuclear cells (PBMC). […] Supernatant aliquots were removed and virus production was quantified by reverse transcriptase assay. […] Cells were incubated for 72 h and then treated with lysis buffer and luciferase activity was determined. […]

[2] = system: murine leukemia virus (MLV); assay type: cell-based
HIV-1Luc-AM = assay type: cell-based
[3] = system: HIV-1NL4-3 carrying firefly luciferase; assay type: cell-based; details: for t1/2, time of drug addition that maintains 50% inhibition: AMD3100 10 µM, T20 10 µM, 3TC 100 µM, Raltegravir 10 µM, DRB 50 µM
[4] = system: Tat/Rev-dependent luciferase after 293T (HIV-1 Env) / U87.CD4.CXCR4 cell fusion; details: for t1/2, time of drug addition that maintains 50% inhibition, cell-to-cell fusion: monophasic, Tat/Rev-dependent luciferase in cell lysates, triplicate
BIV TAR RNA = details: Discussion; cited from earlier work
Description: Our design of inhibitors of the TAR RNA-Tat protein interaction started with the assumption that constrained peptidomimetics would provide effective rationale to block the relatively large interfaces formed between the viral protein and its cognate RNA [24]–[27]. The D-Pro-L-Pro template restricts pharmacophores into planar ß-hairpin structures with side chains emerging from each side. […] Specific and high affinity binding allow ...

[5] = system: Tat-mediated transactivation of HIV-1 LTR; test: LTR-luciferase reporter + Tat in 293T cells (Figure 3B); assay type: cell-based; details: 10 µM
[6] = system: (-) strand strong stop DNA synthesis by recombinant HIV-1 RT (p66/p51) on wild type TAR template; test: Reconstituted in vitro reverse transcription, wild type R_U5_pbs RNA template; assay type: biochemical
Description: This assay measures the synthesis of (-) strand strong stop DNA by recombinant HIV-1 RT (p66/p51) from an 18 nt DNA primer, pre-annealed to an HIV-1 RNA template encompassing the repeat (R), 5′ unique sequence (U5), and the primer binding sequence (PBS) [49].
HIV-1 RNA representing the wild type R, U5, pbs, and uncoding sequence (270 nt) (wt R_U5_pbs RNA) was produced by in vitro T3 transcription (T3 MegaScript, Ambion) from a PCR product (with T3 extended primer) derived from NL4-3. […] The DNA primer (18 nt), complementary to the primer binding sequence (3′ end of tRNA^Lys,3), was annealed to the template as described [78]. The DNA primer was annealed to the various HIV-1 RNA templates by denaturation and annealing conditions previously described [78]. […] Reactions were incubated at 37°C for 45 min and then quenched with formamide EDTA loading buffer [78] for subsequent electrophoresis on a 8% denaturing polyacrylamide gel. Gels were autoradiographed and analyzed with a BioRad phosphorimager.

[7] = system: (-) strand strong stop DNA synthesis by HIV-1 RT on mutant TAR template; test: Reconstituted in vitro reverse transcription, mutant TAR RNA template; assay type: biochemical; details: 8 µM
Description: To determine if L-50 inhibition of reverse transcription was dependent on the high affinity Tat-binding site located at the TAR bulge, mutations that inactivate Tat-binding were introduced into the RNA template (Figure 9A).
The mutant TAR RNA transcript (with mutations 5′-UCUG-3′ to 5′-UGGU-3′ in the bulge) was generated by T3 transcription from a PCR product with the forward primer having the nt substitutions for site-directed mutagenesis. […] The DNA primer (18 nt), complementary to the primer binding sequence (3′ end of tRNA^Lys,3), was annealed to the template as described [78]. The DNA primer was annealed to the various HIV-1 RNA templates by denaturation and annealing conditions previously described [78]. […] Reactions were incubated at 37°C for 45 min and then quenched with formamide EDTA loading buffer [78] for subsequent electrophoresis on a 8% denaturing polyacrylamide gel. Gels were autoradiographed and analyzed with a BioRad phosphorimager.

HIV-1 LTR promoter = test: pLTR.LUC reporter alone or co-transfected with HIV-1NL4-3 in 293T cells (Figure 4); assay type: cell-based
[8] = system: Tat-dependent transcription from HIV-1 LTR; test: Tat-dependent transactivation in cell-free transcription; assay type: biochemical
[9] = system: HIVNL4-3 transcription / virus production; test: Single-cycle growth assay, 293T cells transfected with pNL4-3 (Figure 3C); details: 50 µM; 293T cells transfected with HIVNL4-3; monitored by RT activity
HIV-1 TAR = details: cited from earlier work
Description: Linear peptide derivatives have been used previously to target TAR RNA and block Tat binding, [17], [20], [21] but their utility was limited by conformational flexibility which allowed non-specific RNA binding. To avoid this problem we have developed conformationally constrained mimics of HIV-1 Tat [24]–[27] based on the structure of the BIV (Bovine Immunodeficiency Virus) Tat-TAR complex, [29] (Figure 1). Specifically, we constructed a series of ß-hairpin mimics with 12-residue loops on a heterochiral D-Pro-L-Pro dipeptide scaffold. This D-Pro-L-Pro scaffold strongly ... || Our design of inhibitors of the TAR RNA-Tat protein interaction started with the assumption that constrained peptidomimetics would provide effective rationale to block the relatively large interfaces formed between the viral protein and its cognate RNA [24]–[27]. The D-Pro-L-Pro template restricts pharmacophores into planar ß-hairpin structures with side chains emerging from each side. […] Specific and high affinity binding allow ...

HIV-1NL4-3 [10] = test: Infection of U87.CD4.CXCR4 cells with supernatants of L-50-treated 293T transfections (Figure 4D); assay type: cell-based
Experimental: To test whether the virus released from transfected cells could be inhibited by L-50 under conditions of multiple-cycle growth, virus-containing supernatants from 293T transfections (containing L-50) were used to infect U87.CD4.CXCR4 cells (which support multiple rounds of HIV-1 replication) and viral progeny were measured 10 days post-infection. […] Removal of L50 from virus was attempted by pelleting virus from supernatant of L50-treated cells transfected with NL4-3. It is important to note that virus production was already decreased by L50 at least 50% from transfected cells.

CMV promoter = CMV promoter luciferase control reporter in 293T cells; assay type: cell-based
[11] = system: HIV-1NL4-3 carrying firefly luciferase; details: cited from earlier work
Description: There is also evidence that Tat plays a role in viral reverse transcription, although much of this work has been controversial. Loss of function Tat mutants have been reported to impair reverse transcription 3- to 5-fold compared to wild type HIV-1 both in infected T cells and in endogeneous reverse transcription reactions, [69]. Tat-mediated RNA secondary structure remodeling may facilitate obligatory strand transfers during viral DNA synthesis by reverse transcriptase. However, it is possible to create replication-competent viruses where the TAR RNA sequence is replaced by a ...

[12] = U87.CD4.CXCR4 cells, Tat-independent SV40-driven reporter
[13] = synchronized infection, luciferase at 72 h, triplicate
[14] = L50 250 µM, synchronized infection, luciferase at 72 h, triplicate

In the case of `Nc1ccn([C@@H]2CS[C@H](CO)O2)c(=O)n1` [3TC], the IC50 (HIV-1NL4-3 [1]; Human immunodeficiency virus 1, virus production by RT assay, MOI 0.001) is reported as 120 ± 30 nM, the IC50 (HIV NL4-3) is reported as 10 nM and the “Inhibition of MLV replication (words, Discussion)” value (from here on “Inhibition … (words, Discussion)”) [2] is reported as “blocked MLV replication”. The “Luciferase expression in HIV-1Luc-AM infected cells” value (HIV-1Luc-AM; [12]) was “efficiently inhibited”.
With `c1cc(CN2CCCNCCNCCCNCC2)ccc1CN1CCCNCCNCCCNCC1` [AMD3100, reference compound] the “t1/2, time of drug addition that maintains 50% inhibition” value [3, 13] was 0.77 h and the “Inhibition of cell-to-cell fusion” value [4] was “highly sensitive to inhibition”.
For `Cc1cn([C@H]2C[C@H](N=[N+]=[N-])[C@@H](CO)O2)c(=O)[nH]c1=O` [AZT], the “Inhibition … (words, Discussion)” value [2] was “blocked MLV replication” and the “Inhibition of MLV replication” value ([2]; 100 µM) was “completely blocked”.
With `OC[C@H]1O[C@@H](n2cnc3cc(Cl)c(Cl)cc32)[C@H](O)[C@@H]1O` [DRB, 5,6-dichloro-1-ß-D-ribobenzimidazole, reference compound] the “t1/2, time of drug addition that maintains 50% inhibition” value [3, 13] was 35.3 h, the “t1/2, time of drug addition that maintains 50% inhibition, cell-to-cell fusion” value [4] was 11.3 h and the “Luciferase expression in HIV-1Luc-AM infected cells” value (HIV-1Luc-AM; [12]) was “efficiently inhibited”.
In the case of `CC[C@H](C)[C@@H]1NC(=O)[C@H](CCCNC(=N)N)NC(=O)[C@H](CCCNC(=N)N)NC(=O)[C@H](CCCCN)NC(=O)CNC(=O)[C@H](CCCNC(=N)N)NC(=O)[C@H]([C@@H](C)O)NC(=O)[C@H](CCCNC(=N)N)NC(=O)[C@H](C(C)C)NC(=O)[C@H](CCCNC(=N)N)NC(=O)[C@@H]2CCCN2C(=O)[C@H]2CCCN2C(=O)[C@H](CCCNC(=N)N)NC(=O)[C@H](CCCNC(=N)N)NC1=O` [L-50] (HELM PEPTIDE1{R.V.R.T.R.G.K.R.R.I.R.R.[dP].P}$PEPTIDE1,PEPTIDE1,1:R1-14:R2$$$V2.0), the “Discrimination against BIV TAR RNA sequence” value (BIV TAR RNA) is given as “effectively discriminated”, the “Reduction of Tat-mediated transactivation” value [5] is given as 53% and the “Inhibition of (−) strong stop synthesis on the wild type template” value ([6]; 8 µM) is given as 80%. The IC50 ([6]; read-out: IC50, inhibition of (−) strand strong stop DNA synthesis (as printed in picture of Figure 8B)) was 5500 ± 570 nM, the IC50 ([6]; recombinant HIV-1 RT, 18 nt DNA primer, RNA template ∼2 µM, 37°C 45 min, triplicate, read-out: IC50, inhibition of (−) strand strong stop DNA synthesis) was 5500 ± 570 nM and the “Inhibition of HIV-1NL4-3 replication” value (HIV-1NL4-3 [1]; Figure 2A) was “able to inhibit replication”. The “Inhibition of (−) strong stop DNA synthesis on template with mutations in the TAR L-50 binding site” value [7] was “less than 10%”, the “Decrease in luciferase expression (pLTR.LUC + HIV-1NL4-3)” value (HIV-1 LTR promoter; 200 µM, 293T cells, p = 0.03, N = 5) was 1.7 fold and the “HIV-1 virion expression” value (HIV-1 LTR promoter; 200 µM, RT activity in cell-free supernatant of transfected 293T cells) was “modest, but reproducible reduction”. The “Luciferase expression in cells transfected with either reporter plasmid alone” value (HIV-1 LTR promoter; 293T cells, no Tat) was “did not inhibit”, the “t1/2, first (early) phase of biphasic inhibition” value [3, 14] was 1.8 h and the “t1/2, second (late) phase of biphasic inhibition” value [3, 14] was 35.7 h. The “Block of viral replication in the initial inhibitory phase” value ([3]; added up to approximately 2 h post infection) was ~100%, the IC50 ([8]; cell-free transcription, nuclear extract, recombinant Tat, 20 min at 30°C, read-out: IC50, decrease of full-length transcripts (ρ)) was 50 nM and the “Production of short transcripts (τ)” value ([8]; internal control for non-specific inhibition of transcription) was “largely unaffected”. For the same compound, the “Inhibition of production of the viral RNA” value [9] was 76%, the “Inhibition of MLV” value [2] was “did not inhibit” and the “Inhibition … (words, Discussion)” value [2] was “did not”. For the same compound, the “Inhibition of cell-to-cell fusion” value [4] was “no measurable inhibition”, the “t1/2, time of drug addition that maintains 50% inhibition, cell-to-cell fusion” value [4] was 8.2 h and the “Affinity for HIV-1 TAR” value (HIV-1 TAR; Discussion) was “nanomolar affinities”. For the same compound, the Kd (HIV-1 TAR; in vitro) was 1 nM, the “Decrease of virus production from transfected cells” value (HIV-1NL4-3 [10]; 293T cells transfected with NL4-3) was “at least 50%” and the “Viral progeny 10 days post-infection” value (HIV-1NL4-3 [10]; U87.CD4.CXCR4 cells infected with virus made in the presence of L-50) was “No measurable viral progeny”. The “Luciferase expression in HIV-1Luc-AM infected cells” value (HIV-1Luc-AM) was “efficiently blocked”, the “Reduction of transcription from control CMV promoter” value (CMV promoter; 10 µM, 293T cells) was 12% and the “Reduction of CMV promoter-driven luciferase activity” value (CMV promoter; 50 µM, 293T cells cotransfected with HIVNL4-3) was “less than 5%”. The “CMV promoter-driven luciferase expression with HIV-1NL4-3” value (CMV promoter; 293T cells, Figure 4B) was “not significantly inhibited”.
For `Cc1ccnc2c1NC(=O)c1cccnc1N2C1CC1` [NVP], the IC50 (HIV NL4-3) is given as 65 nM and the “t1/2 of nevirapine in time-of-drug-addition” value [11] is given as ~7 h.
In the case of `Cc1nnc(C(=O)NC(C)(C)c2nc(C(=O)NCc3ccc(F)cc3)c(O)c(=O)n2C)o1` [Raltegravir, reference compound], the “t1/2, time of drug addition that maintains 50% inhibition” value [3, 13] is reported as 11.5 h.
